# Source: paper PMC11435058, “Synthesis of New Thiazole-Privileged Chalcones as Tubulin Polymerization Inhibitors with Potential Anticancer Activities” (Pharmaceuticals, 2024)
# Columns and labels:
# SNB-75 = assay: NCI-60 anticancer screen (SRB; single dose and five doses); details: Homo sapiens, SNB-75, 48 h, read-out: Growth Percentage
# OVCAR-4 = assay: as above; details: Homo sapiens
# LOX IMVI = assay: as above; details: Homo sapiens
# A549/ATCC = assay: as above; details: Homo sapiens
# NCI-H23 = assay: as above; details: Homo sapiens
# COLO 205 = assay: as above; details: Homo sapiens
# NCI-H460 = assay: as above; details: Homo sapiens
# HCT-15 = assay: as above; details: Homo sapiens
# HOP-92 = assay: as above; details: Homo sapiens
# SN12C = assay: as above; details: Homo sapiens
# DU-145 = assay: as above; details: Homo sapiens
# EKVX = assay: as above; details: Homo sapiens
# HOP-62 = assay: as above; details: Homo sapiens
# BT-549 = assay: as above; details: Homo sapiens
# K-562 = assay: as above; details: Homo sapiens
# A498 = assay: as above; details: Homo sapiens
# T-47D = assay: as above; details: Homo sapiens, T47D
# SK-MEL-28 = assay: as above; details: Homo sapiens
# RPMI-8226 = assay: as above; details: Homo sapiens
# HT29 = assay: as above; details: Homo sapiens
# KM12 = assay: as above; details: Homo sapiens
# 786-0 = assay: as above; details: Homo sapiens
# HCC-2998 = assay: as above
# CCRF-CEM = assay: NCI-60 anticancer screen (SRB; single dose 10 μM and five doses); details: Homo sapiens
# TK-10 = assay: NCI-60 anticancer screen (SRB; single dose and five doses); details: Homo sapiens
# SR = assay: as above; details: Homo sapiens
# NCI/ADR-RES = assay: as above; details: Homo sapiens
# PC-3 = assay: as above; details: Homo sapiens
# ACHN = assay: as above; details: Homo sapiens
# [1] = 48 h, read-out: Growth Percentage
compound,measurement,setting,value
"Cc1[nH]c(=S)sc1C(=O)/C=C/c1ccc(F)cc1 [2c, (E)-3-(4-Fluorophenyl)-1-(4-Methyl-2-Thioxo-2,3-Dihydrothiazol-5-yl)Prop-2-En-1-One]",activity at 10 µM,SNB-75,36.5%
same,GI50,OVCAR-4; OVCAR-4,6.03 µM
same,activity at 10 µM,"OVCAR-4; OVCAR-4, 48 h, read-out: Growth Percentage",48.4%
same,CC50,"OVCAR-4; OVCAR-4, read-out: LC50",44.7 µM
same,IC (TGI),"OVCAR-4; OVCAR-4, read-out: TGI",19.6 µM
same,GI50,LOX IMVI,3.26 µM
same,activity at 10 µM,LOX IMVI; [1],8.91%
same,CC50,LOX IMVI; read-out: LC50,36.6 µM
same,IC (TGI),LOX IMVI; read-out: TGI,12.7 µM
same,GI50,A549/ATCC; A549,12.4 µM
same,activity at 10 µM,"A549/ATCC; A549, 48 h, read-out: Growth Percentage",56%
same,CC50,"A549/ATCC; A549, read-out: LC50",57.7 µM
same,IC (TGI),"A549/ATCC; A549, read-out: TGI",26.8 µM
same,GI50,NCI-H23; NCI-H23,10.6 µM
same,activity at 10 µM,"NCI-H23; NCI-H23, 48 h, read-out: Growth Percentage",62.7%
same,CC50,"NCI-H23; NCI-H23, read-out: LC50",49.9 µM
same,IC (TGI),"NCI-H23; NCI-H23, read-out: TGI",23 µM
same,GI50,COLO 205; COLO 205,15.4 µM
same,CC50,"COLO 205; COLO 205, read-out: LC50",80.4 µM
same,IC (TGI),"COLO 205; COLO 205, read-out: TGI",35.2 µM
same,GI50,NCI-H460; NCI-H460,15.2 µM
same,activity at 10 µM,"NCI-H460; NCI-H460, 48 h, read-out: Growth Percentage",39.3%
same,CC50,"NCI-H460; NCI-H460, read-out: LC50",83.3 µM
same,IC (TGI),"NCI-H460; NCI-H460, read-out: TGI",35.6 µM
same,GI50,HCT-15; HCT-15,3.27 µM
same,activity at 10 µM,"HCT-15; HCT-15, 48 h, read-out: Growth Percentage",14.7%
same,CC50,"HCT-15; HCT-15, read-out: LC50",43.7 µM
same,IC (TGI),"HCT-15; HCT-15, read-out: TGI",14.2 µM
same,GI50,HOP-92; HOP-92,3.35 µM
same,activity at 10 µM,"HOP-92; HOP-92, 48 h, read-out: Growth Percentage",45.4%
same,CC50,"HOP-92; HOP-92, read-out: LC50",56 µM
same,IC (TGI),"HOP-92; HOP-92, read-out: TGI",15.8 µM
same,GI50,SN12C,3.95 µM
same,activity at 10 µM,SN12C; [1],24.1%
same,CC50,SN12C; read-out: LC50,46.7 µM
same,IC (TGI),SN12C; read-out: TGI,17 µM
same,GI50,DU-145; DU-145,4.32 µM
same,activity at 10 µM,"DU-145; DU-145, 48 h, read-out: Growth Percentage",20.3%
same,CC50,"DU-145; DU-145, read-out: LC50",39.9 µM
same,IC (TGI),"DU-145; DU-145, read-out: TGI",15.7 µM
same,GI50,EKVX,12.8 µM
same,activity at 10 µM,EKVX; [1],51%
same,CC50,EKVX; read-out: LC50,64.6 µM
same,IC (TGI),EKVX; read-out: TGI,28.7 µM
same,GI50,HOP-62; HOP-62,3.83 µM
same,CC50,"HOP-62; HOP-62, read-out: LC50",48.7 µM
same,IC (TGI),"HOP-62; HOP-62, read-out: TGI",16.2 µM
same,GI50,BT-549; BT-549,2.34 µM
same,activity at 10 µM,"BT-549; BT-549, 48 h, read-out: Growth Percentage",23.2%
same,IC (TGI),"BT-549; BT-549, read-out: TGI",8.27 µM
same,GI50,K-562; K562,3.25 µM
same,activity at 10 µM,"K-562; K562, 48 h, read-out: Growth Percentage",20.4%
same,CC50,"K-562; K562, read-out: LC50",> 100 µM
same,IC (TGI),"K-562; K562, read-out: TGI",48.8 µM
same,GI50,A498; A498,13.6 µM
same,activity at 10 µM,"A498; A498, 48 h, read-out: Growth Percentage, A498, dose of 10 μM",115%
same,CC50,"A498; A498, read-out: LC50",52.6 µM
same,IC (TGI),"A498; A498, read-out: TGI",26.8 µM
same,GI50,T-47D,3.94 µM
same,CC50,T-47D; read-out: LC50,> 100 µM
same,IC (TGI),T-47D; read-out: TGI,28.8 µM
same,GI50,SK-MEL-28; SK-MEL-28,11.8 µM
same,activity at 10 µM,"SK-MEL-28; SK-MEL-28, 48 h, read-out: Growth Percentage",50.6%
same,CC50,"SK-MEL-28; SK-MEL-28, read-out: LC50",51.4 µM
same,IC (TGI),"SK-MEL-28; SK-MEL-28, read-out: TGI",24.7 µM
same,GI50,RPMI-8226; RPMI-8226,2.85 µM
same,activity at 10 µM,"RPMI-8226; RPMI-8226, 48 h, read-out: Growth Percentage",2.32%
same,CC50,"RPMI-8226; RPMI-8226, read-out: LC50",> 100 µM
same,IC (TGI),"RPMI-8226; RPMI-8226, read-out: TGI",> 100 µM
same,GI50,HT29; HT-29,10.6 µM
same,activity at 10 µM,"HT29; HT-29, 48 h, read-out: Growth Percentage",73.3%
same,CC50,"HT29; HT-29, read-out: LC50",52.4 µM
same,IC (TGI),"HT29; HT-29, read-out: TGI",23.6 µM
same,GI50,KM12; KM12,4.28 µM
same,activity at 10 µM,"KM12; KM12, 48 h, read-out: Growth Percentage",6.85%
same,CC50,"KM12; KM12, read-out: LC50",41 µM
same,IC (TGI),"KM12; KM12, read-out: TGI",15.4 µM
same,GI50,786-0; 786-0,4.59 µM
same,activity at 10 µM,"786-0; 786-0, 48 h, read-out: Growth Percentage",37.3%
same,CC50,"786-0; 786-0, read-out: LC50",47.1 µM
same,IC (TGI),"786-0; 786-0, read-out: TGI",17.6 µM
same,GI50,"HCC-2998; Homo sapiens, HCC 2998",3.46 µM
same,activity at 10 µM,"HCC-2998; Homo sapiens, HCC 2998, 48 h, read-out: Growth Percentage",27.1%
same,CC50,"HCC-2998; Homo sapiens, HCC 2998, read-out: LC50",36.5 µM
same,TGI,"HCC-2998; five-dose, Colon Cancer HCC-2998",13.2 µM
same,GI50,CCRF-CEM,3.68 µM
same,activity at 10 µM,CCRF-CEM; [1],-0.21%
same,IC (TGI),CCRF-CEM; read-out: TGI,> 100 µM
same,GI50,TK-10; TK-10,12.5 µM
same,activity at 10 µM,"TK-10; TK-10, 48 h, read-out: Growth Percentage",40.4%
same,CC50,"TK-10; TK-10, read-out: LC50",50.7 µM
same,IC (TGI),"TK-10; TK-10, read-out: TGI",25.2 µM
same,GI50,SR,3.19 µM
same,activity at 10 µM,SR; [1],18.3%
same,CC50,SR; read-out: LC50,> 100 µM
same,IC (TGI),SR; read-out: TGI,> 100 µM
same,GI50,NCI/ADR-RES,5.92 µM
same,activity at 10 µM,NCI/ADR-RES; [1],-10.8%
same,CC50,NCI/ADR-RES; read-out: LC50,85 µM
same,IC (TGI),NCI/ADR-RES; read-out: TGI,24.9 µM
same,GI50,PC-3; PC-3,5.82 µM
same,activity at 10 µM,"PC-3; PC-3, 48 h, read-out: Growth Percentage",43.4%
same,CC50,"PC-3; PC-3, read-out: LC50",> 100 µM
same,IC (TGI),"PC-3; PC-3, read-out: TGI",29.7 µM
same,GI50,ACHN,7.02 µM
same,activity at 10 µM,ACHN; [1],47.2%
same,CC50,ACHN; read-out: LC50,44.3 µM
same,IC (TGI),ACHN; read-out: TGI,19.6 µM
